According to publication PMC7226586 (Journal of Medicinal Chemistry, 2019):
Entries after “also recorded” stand apart in the source; their conditions may differ.

What was measured:
[1] = biological target: purified recombinant CYP46A1 (Homo sapiens, UniProt Q9Y6A2); test: CYP46A1 enzyme assay; assay type: biochemical; settings: for shape of concentration dependence curve of CYP46A1 activity / CYP46A1 inhibition at the concentrations tested: 0–100 μM compound; for CYP46A1 inhibition at the 60–100 μM concentrations: 60–100 μM compound; for effect of co-incubation with L-Glu on CYP46A1 activation / maximal activation in the presence of L-Glu (fold): 100 μM L-Glu; for effect of co-incubation with L-Glu on CYP46A1 activation / effect of co-incubation with (S)-EFV on CYP46A1 activation / maximal activation in the presence of L-Glu (fold): 20 μM compound; for effect of co-incubation with (S)-EFV on CYP46A1 activation: 20 μM (S)-EFV
[2] = biological target: cholesterol-bound CYP46A1 (Homo sapiens, UniProt Q9Y6A2); test: Spectral titrations of cholesterol-bound CYP46A1; assay type: binding; settings: 20 μM cholesterol; for spectral response type, cholesterol-bound CYP46A1 / spectral response fit, cholesterol-bound CYP46A1: 18 °C
substrate-free CYP46A1 = substrate-free CYP46A1 (Homo sapiens, UniProt Q9Y6A2); test: Spectral titrations of substrate-free CYP46A1; assay type: binding; settings: for spectral response type, substrate-free CYP46A1: P450 difference spectrum
[3] = biological target: CYP46A1 allosteric sites (EFV binding site, Glu binding site) (Homo sapiens, UniProt Q9Y6A2); test: Mapping of the allosteric site; assay type: biochemical; settings: for allosteric site of binding: from co-incubations and mutants; for P450 activation with replacements within the Glu-binding site: CYP46A1 mutants K358A, F416A and Y427A; for P450 activation with replacements within the Glu-binding site / P450 activation with replacements within the EFV-binding site: 20 μM compound; for P450 activation with replacements within the EFV-binding site: CYP46A1 mutants R415A and F405A
CYP46A1 = CYP46A1 (Homo sapiens, UniProt Q9Y6A2); test: Stopped-flow kinetics of compound binding to and release from CYP46A1
[4] = cited from earlier work
[5] = plasma of EFV-treated subjects; cited from earlier work

SMILES | shape of concentration dependence curve of CYP46A1 activity [1] | fit of spectral titration curve, cholesterol-bound CYP46A1 [2] | spectral response type, cholesterol-bound CYP46A1 [2] | fit of spectral titration curve, substrate-free CYP46A1 (substrate-free CYP46A1) | spectral response type, substrate-free CYP46A1 (substrate-free CYP46A1; 18 °C) | effect of co-incubation with L-Glu on CYP46A1 activation [1] | allosteric site of binding [3] | spectral response fit, cholesterol-bound CYP46A1 [2] | effect of co-incubation with (S)-EFV on CYP46A1 activation [1] | P450 activation with replacements within the Glu-binding site [3] | P450 activation with replacements within the EFV-binding site [3] | CYP46A1 activation compared with that with (S)-EFV [1] | other results
O=C1Nc2c(O)cc(Cl)cc2C(C#CC2CC2)(C(F)(F)F)O1 (racemic) [rac-1] | bell-shaped | sigmoidal | reverse type 1-like | hyperbolic | type 2 |  |  |  |  |  |  |  | CYP46A1 inhibition at the 60–100 μM concentrations [1]: did not inhibit
O=C1Nc2cc(O)c(Cl)cc2C(C#CC2CC2)(C(F)(F)F)O1 (racemic) [rac-2] | bell-shaped | sigmoidal | reverse type 1-like | hyperbolic | type 2 | synergistically activated | both EFV- and Glu-binding sites | S |  |  |  |  | CYP46A1 inhibition at the 60–100 μM concentrations [1]: did not inhibit
O=C1Nc2c(O)cc(Cl)cc2C(C#CC2(O)CC2)(C(F)(F)F)O1 (racemic) [rac-3] | essentially hyperbolic | hyperbolic | reverse type 1-like | hyperbolic | type 2 | lower | mainly with the allosteric site for Glu |  | synergistic CYP46A1 activation | largely reduced or abolished | not significantly affected |  | kon lower than that of (S)-EFV (CYP46A1): 3 fold; mechanism of binding to substrate-free CYP46A1 (CYP46A1; stopped-flow experiments): conformational-selection; rates of binding (kobserved) lower than those for (S)-EFV (CYP46A1; substrate-free CYP46A1): ≥ 7 fold; spectral binding at 15–30 μM, stopped-flow (CYP46A1; substrate-free CYP46A1, 15–30 μM compound): essentially no spectral binding; difference in the apparent spectral Kd versus (S)-EFV (substrate-free CYP46A1; substrate-free CYP46A1): 2 fold
O=C1Cc2ccc(Cl)cc2C(C#CC2CC2)(C(F)(F)F)O1 (racemic) [rac-5] | sigmoidal-like |  | did not seem to elicit a quantifiable spectral response; also recorded: no spectral response | sigmoidal | type 1 | synergistically activated | both EFV- and Glu-binding sites |  |  |  |  | lower | CYP46A1 inhibition at the concentrations tested [1]: did not inhibit; spectral response fit, substrate-free CYP46A1 (substrate-free CYP46A1; 18 °C): S
CC1Nc2ccc(Cl)cc2C(C#CC2CC2)(C(F)(F)F)O1 (racemic) [rac-7] | bell-shaped |  | did not seem to elicit a quantifiable spectral response; also recorded: no spectral response | hyperbolic | type 1 | abolished | mainly with the allosteric site for Glu |  | synergistic CYP46A1 activation | largely reduced or abolished | not significantly affected | lower | maximal activation in the presence of L-Glu (fold) [1]: abolished
O=C1CC(C#CC2CC2)(C(F)(F)F)c2cc(Cl)ccc2N1 (racemic) [rac-8] | bell-shaped | sigmoidal | reverse type 1-like | hyperbolic | type 1 | synergistically activated | preferential EFV-site binding | S |  |  |  | similar | 
CCCC#CC1(C(F)(F)F)OC(=O)Nc2ccc(Cl)cc21 (racemic) [rac-9] | bell-shaped | sigmoidal | reverse type 1-like | hyperbolic | type 1 | synergistically activated | preferential EFV-site binding | S |  |  |  | lower | 
O=C1Nc2cc(O)c(Cl)cc2[C@@](C#CC2CC2)(C(F)(F)F)O1 [7-hydroxyEFV, (S)-7-hydroxyEFV] |  |  |  |  |  |  |  |  |  |  |  |  | cerebrospinal fluid level [4]: 0.63 ng/mL; plasma level [5]: 8.8 to 225 ng/mL
FC(F)(F)[C@@]1(C#CC2CC2)OCNc2ccc(Cl)cc21 [(S)-6] | bell-shaped |  | did not seem to elicit a quantifiable spectral response; also recorded: no spectral response | hyperbolic | type 1 | abolished | mainly with the allosteric site for Glu |  | synergistic CYP46A1 activation | largely reduced or abolished | not significantly affected | lower | CYP46A1 inhibition at the concentrations tested [1]: did not inhibit; maximal activation in the presence of L-Glu (fold) [1]: abolished
